In patent US20110008279A1, “Methods and Compositions Relating to Adhesins as Adjuvants” (priority 2005, published 2011):

Experiments:
[1] = system: human monocytes; experiment: Cytokine and chemokine secretion by human monocytes (Bio-Plex, IL-23 ELISA); format: cell-based
[2] = system: human macrophages; experiment: NadA binding to human macrophages; conditions: 37° C.
Description: The graphs plot the mean fluorescence intensities (MFI) ±SD measured in human macrophages that have been incubated with NadAΔ351-405-Alexa, at different concentrations (A), or with 100 nM NadAΔ351-405-Alexa in presence of increasing concentrations of unlabelled protein (B), for 3 hours at 37° C. or 0° C. The reported data are the average of three independent experiments repeated in triplicate.
NadA binding to monocyte-derived macrophages was also investigated. A dose-dependent association of NadA to macrophages was confirmed by MFI analysis and competition by non-labelled ligand was used to ascertain whether NadA binding was specific.

[3] = system: monocytes; experiment: NadA binding to monocytes; set-up: species or system human
Description: The graphs plot the mean fluorescence intensities (MFI) ±SD measured in monocytes that have been incubated with NadAΔ351-405-Alexa, at different concentrations (A), or with 100 nM NadAΔ351-405-Alexa in presence of increasing concentrations of unlabelled protein (B), for 3 hours at 37° C. or 0° C. The reported data are the average of three independent experiments repeated in triplicate.
The dose-dependent preferential association of NadA to CD14^+ monocytes was also confirmed by MFI analysis. Competition using non-labelled ligand ascertained whether NadA binding was specific (FIG. 12). […] Based on the molecular weight of the NadA monomer, this value is in fact ˜1 μM, since the recombinant protein used in the experiment is a homo-trimer.

[4] = system: human monocytes; experiment: Long-term morphology of monocytes (light microscopy); format: cell-based
Description: In order to evaluate the possible long-term, differentiation effect of NadA, adherent monocytes were treated with medium alone, NadAΔ351-405 or E. coli LPS and cells were cultured for seven days. At day 4 the agonists were added again to ensure a constant stimulation. Cell morphology was monitored by light microscopy after 1, 2, 3 and 7 days. […] NadAΔ351-405 thus induces both alteration cell morphology and distribution, this is a good indicator of monocyte activation and differentiation.

[5] = system: human macrophages; experiment: Morphology of macrophages (light microscopy); format: cell-based
Description: DCs cultured for 5 days in 6-well plates (Costar) were treated with recombinant human IFN-γ (1000 U/ml) for 18 h before NadA (1.5 μM) or LPS (1 μg/ml) stimulation for 4 h. Control cultures were untreated cells or treated with IFN-γ alone.
The same experiment was also carried out using macrophages.

[6] = system: allogenic CD4+ naïve T lymphocyte; experiment: Allogenic mixed leukocyte reaction, naive CD4+ T-cell proliferation; format: cell-based, human
Description: Allogenic mixed leukocyte reaction was performed with irradiated (3000 rads from a ^137Cs source) mo-DC and purified allogenic T cells. […], LPS 1 μg/ml (positive control) and non stimulated DC (negative control) pretreated or not with IFN-γ 1000 U/ml were washed and cultured with allogenic CD4+ naïve T lymphocyte (0.3×10^5 cells/well) for 5 days at 37° C. in a humidified CO2 incubator in round-bottom 96-well microtiter plates (Costar). Proliferation was measured by pulse-labelling triplicate wells for 6 h with 1 μCi of 3H-Thymidine/well (Amersham Biosciences). Negative controls included T naive cells incubated or DC incubated alone.
^3H-Thymidine incorporation was measured by harvesting cells onto glass fiber filter paper (Pall Corporation, Life Sciences) using a 96-well semiautomatic cell harvester (Multiwash 2000, Dynatech) and counting by liquid scintillation in a […] (Wallac 1409 liquid scintillation counter).

[7] = system: Chang cells; experiment: NadA binding to Chang cells (heparin, competition with non-labelled NadA); set-up: species or system human; conditions: NadA 600 nM, fluorescence microscopy
Description: Chang and CHO-K1 cells were incubated for 3 h at 37° C. with Alexa^488-labeled NadAΔ351-405 (250 nM) in the presence or the absence of non-labelled NadAΔ351-405 (0, 1, 2.5 or 5 μM), washed and analyzed by FACS; results shown are the relative MFI values ±SE, n=3.
Chang cells were incubated at 37° C. for 3 h with NadA 600 nM and re-incubated 10 min at 37° C. with heparin.

[8] = system: mo-DCs; experiment: Expression of maturation markers on mo-DCs (flow cytometry); format: cell-based, human; conditions: for CD86 expression on co-stimulation with R-848: R-848 1 μM, NadA 1.5 μM
Description: Reagents used were tested for low endotoxin contamination using the Limulus amoebocyte assay (Sigma). Dendritic cells were generated from human peripheral blood mononuclear cells (PBMC) as described previously. In brief, PBMC were isolated from buffy coats of healthy donors by Ficoll-Paque Plus density gradient centrifugation (Amersham Pharmacia Biotech AB). Separate monocyte and T-cell fractions were obtained from PBMCs by Percoll density gradient centrifugation (Amersham Pharmacia Biotech AB). […] DC were obtained by 6-d culture adherent monocytes in medium with 20 ng/ml IL-4 (5×10^6 units/mg, Peprotech) and 50 ng/ml GM-CSF (1×10^7 units/mg, Peprotech). Cytokines were added again on day 4 in RPMI-1640 medium supplemented with 10% FBS. […] After 24 h cells were harvested and analysed. Culture supernatants were collected frozen in liquid nitrogen and conserved at −80° C. for cytokine analysis.
After differentiation, DC were routinely stained with phycoerytrin conjugated monoclonal antibodies to human CD14, CD1a, CD83, CD86 (B7.2), CD80 (B7.1), MHC II (HLA-DR), purchased from BD-Pharminghen and Caltag. In parallel, cells were stained with the isotype matched control mAb. Cells were immunostained with the proper dilution of PE-conjugated anti human monoclonal antibodies at 4° C. for 30 min in 100 μl of phosphate-buffered saline pH 7.2 (PBS, GIBCO BRL) containing 1% FBS and 0.1% NaN3 (FACS buffer). After washing, propidium iodide was added to exclude dead cells and cell fluorescence intensities of the gated populations were measured with a EPICS XL-MCL (Coulter) flow cytometer and analyzed with EXPO 32ADC XL 3COLOR or WinMDI 2.8. software. Data were collected on 10000-20000 events.

How did the IL-10 production [1] turn out when NadAΔ351-405 was run?
The IL-10 production was “induced the production”.

And the IL-23 expression [1]?
The IL-23 expression was “only in the presence of IFNγ”.

And the MCP-1 production [1]?
The MCP-1 production was “significant levels”.

What about the “IL-1α, IL-1β and TNFα secretion” value ([1]; NadA alone) of the same substance?
The value was “not significantly induced”.

What about the IL-8 secretion ([1]; NadA alone) of the same substance?
Its IL-8 secretion is “significant secretion”.

What about the IP-10 production ([1]; NadA alone) of the same substance?
The IP-10 production was “In neither monocytes nor macrophages was NadA alone able to produce IP-10”.

What about the “IL-12(p40) and IL-12(p70) expression” value ([1]; alone or in the presence of LPS) of the same substance?
Its value is “not significantly expressed”.

And the “expression of IL-1α and TNFα” value ([1]; co-stimulation with LPS)?
The value was “inhibited”.

What about the GM-CSF secretion ([1]; even with IFNγ co-stimulation) of the same substance?
The GM-CSF secretion was “does not stimulate secretion”.

What about the “IL-10 expression (so in the source)” value ([1]; only in the presence of IFNγ and LPS) of the same substance?
The value was “efficiently increased”.

What about the IL-6 secretion ([1]; presence or absence of LPS) of the same substance?
The IL-6 secretion was “significant secretion”.

What about the MIP-1α production ([1]; with or without co-stimulus) of the same substance?
Its MIP-1α production is “produced”.

And the “decrease of the signal associated to macrophages by non-labelled ligand” value [2]?
The value was −50%.

And the “decrease of the signal associated to monocytes by excess non-labelled NadA” value ([3]; 5 uM non-labelled, 125 nM Alexa-NadA, 37° C., BafA1)?
The value was −50%.

What about the “affinity (Kd) of association to monocyte” value ([3]; NadA-I125 conjugate, Scatchard Plot) of the same substance?
The value was about 3 µM.

And the “Kd of association to monocyte, value for the homo-trimer” value ([3]; corrected because the recombinant protein is a homo-trimer)?
Its value is about 1 µM.

And the cell morphology ([4]; 3-day incubation)?
Its cell morphology is “became elongated and tended to cluster”.

What about the “number of surviving cells with respect to the control” value ([4]; 7 culture days) of the same substance?
The value was “greatly increased”.

What about the “cell clustering compared to LPS treatment” value [5] of the same substance?
The value was “reduced clustering”.

And the “T lymphocyte activation by mo-DCs” value ([6]; absence of IFN-γ priming, 1 μM)?
Its value is “not able to induce a mo-DC phenotype competent for T lymphocyte activation”.

What about the “T cell proliferation relative to LPS-matured mo-DCs” value ([6]; mo-DCs primed with INFγ then stimulated with NadA) of the same substance?
Its value is 30-40%.

What about the “protein binding to Chang cells in the presence of heparin” value [7] of the same substance?
Its value is “dose-dependent reduction”.

What about the “CD86 expression on co-stimulation with R-848” value ([8]; no IFN-γ priming) of the same substance?
The value was “addition of the two effects”.

And the “CD86 expression on co-stimulation with R-848” value ([8]; after IFN-γ priming, flagellin 10 μg/ml)?
The value was “maximal CD86 expression”.

What about the “CD83 level relative to that induced by LPS” value ([8]; after IFN-γ priming) of the same substance?
The value was about 50%.

And the “CD86 expression, dose response” value ([8]; after IFN-γ priming)?
The value was “effectively induced CD86 also in the submicromolar concentration range”.

And the CD86 level ([8]; after IFN-γ priming)?
The CD86 level was “reached the same value observed in LPS-treated cells”.

What about the “IFN-γ potentiation of NadA effect on CD86” value ([8]; at higher NadA concentrations) of the same substance?
Its value is 2-3 fold.

And the “CD86 expression, dose response” value ([8]; no IFN-γ priming)?
The value was “not different from control cells below 1 μM NadA”.

What about the “plasma membrane HLA-DR expression” value ([8]; no IFN-γ priming) of the same substance?
The value was “partially increased”.

And the CD83 expression ([8]; no IFN-γ priming, 24 hour exposure, 1 μM / 1.5 μM)?
Its CD83 expression is “not increased”.
